Measurements published in patent US20110301217A1, “Selective Glycosidase Inhibitors and Uses Thereof” (priority 2008, published 2011).

Biological target: T1, O-GlcNAcase (Homo sapiens, UniProt O60502)
T1 sequence (O60502 1-916): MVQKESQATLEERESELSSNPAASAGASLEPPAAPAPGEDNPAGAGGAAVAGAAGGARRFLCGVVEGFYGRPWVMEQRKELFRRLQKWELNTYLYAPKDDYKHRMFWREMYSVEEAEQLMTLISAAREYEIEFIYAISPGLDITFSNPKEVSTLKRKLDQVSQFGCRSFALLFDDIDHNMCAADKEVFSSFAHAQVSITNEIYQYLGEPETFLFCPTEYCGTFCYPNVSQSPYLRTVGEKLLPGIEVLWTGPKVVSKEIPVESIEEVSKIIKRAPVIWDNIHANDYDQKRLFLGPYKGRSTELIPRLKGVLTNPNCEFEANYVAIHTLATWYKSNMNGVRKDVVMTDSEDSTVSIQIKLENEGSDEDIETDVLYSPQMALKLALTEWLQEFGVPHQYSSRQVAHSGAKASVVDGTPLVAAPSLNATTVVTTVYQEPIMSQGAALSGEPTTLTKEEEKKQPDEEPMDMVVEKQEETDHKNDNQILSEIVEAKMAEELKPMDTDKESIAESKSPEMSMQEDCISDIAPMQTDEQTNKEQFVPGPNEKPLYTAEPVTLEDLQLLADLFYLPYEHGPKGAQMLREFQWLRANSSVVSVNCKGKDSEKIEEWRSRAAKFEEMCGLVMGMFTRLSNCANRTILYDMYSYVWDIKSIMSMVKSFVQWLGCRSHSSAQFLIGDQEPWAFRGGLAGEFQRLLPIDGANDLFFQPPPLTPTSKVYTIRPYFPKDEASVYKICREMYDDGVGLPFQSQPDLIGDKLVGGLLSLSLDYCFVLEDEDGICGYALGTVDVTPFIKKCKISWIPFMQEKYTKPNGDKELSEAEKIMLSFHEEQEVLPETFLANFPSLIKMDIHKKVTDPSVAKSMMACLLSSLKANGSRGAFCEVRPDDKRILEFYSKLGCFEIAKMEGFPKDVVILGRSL
Assay: Assay for determination of KI values for inhibition of O-GlcNAcase activity (pNP-GlcNAc substrate)
Type: biochemical
Details: PBS pH 7.4, 0.5 mM pNP-GlcNAc, 37° C., Dixon plots
Description: Assay for Determination of KI Values for Inhibition of O-GlcNAcase Activity
Experimental procedure for kinetic analyses: Enzymatic reactions are carried out in PBS buffer (pH 7.4) using pNP-GlcNAc as a substrate (0.5 mM) and monitored continuously at 37° C. at 400 nm using a Cary 3E UV-VIS spectrophotometer equipped with a Peltier temperature controller. Reactions are pre-heated in a 500 μL quartz cuvette for approximately 5 minutes followed by addition of 10 μL enzyme via syringe (final enzyme concentration 0.002 mg/mL). Reaction velocities are determined by linear regression of the linear region of the reaction progress curve between the first and third minutes. An inhibitor concentration range of 1/5 to 5 times KI is used in each case.
All KI values are determined using linear regression of Dixon plots.

- Ki: 850 nM
Structure (SMILES): CC(=O)NC[C@H]1N[C@H](CO)[C@@H](O)[C@@H]1O [Compound 2, N-(((2R,3R,4R,5R)-3,4-dihydroxy-5-(hydroxymethyl)pyrrolidin-2-yl)methyl)acetamide]
